Assay [1] deals with mouse oocytes. Description: In vitro fertilization (IVF) after in vitro maturation of oocytes. Type of assay: cell-based, mice (C57BL/6J×DBA/2J F1). How it is done:
Changes in the subsequent IVF are therefore probably due to effects of the test compounds on cytoplasmic maturation.
Immature female mice (C57BL/6J×DBA/2J F1) in the age of 21-24 days were used as oocyte donors. Animals were given an i.p. injection of 10 IU pregnant mare serum gonadotropin (PMSG) to induce follicular growth. Animals were killed by cervical dislocation 48 hours later and the ovaries were dissected out. As sperm donors eight week old male mice (C57BL/6J×DBA/2J F1) were used.
Oocytes were isolated from the ovaries by manual rupture of the follicles using a pair of 27-gauge needles. Spherical naked oocytes (NkO) and CEOs displaying an intact GV were selected and placed in α-minimum essential medium (α-MEM without ribonucleosides, Gibco BRL, Gaithersburg; Cat. No. 22561) supplemented with 8 mg/ml human serum albumin (HSA), 0.23 mM pyruvate, 2 mM glutamine, 100 IU/ml penicillin and 100 μg/ml streptomycin.
The oocytes were rinsed three times in culture medium without oil overlay in 4-well multidishes containing 0.4 ml of the respective oocyte culture medium.
The oocyte culture medium was supplemented with 6.4% Fetal Bovine Serum (FBS). Solutions of novel compound IA and of the two compounds in comparison as mentioned were prepared from a stock solution containing 1 mg/ml of compound dissolved in absolute ethanol. The control group was cultured with a corresponding amount of ethanol.
After a culture time of 18-19 hours oocytes were further processed for in vitro fertilization. […] Oocytes were briefly washed without any test compound and subsequently transferred to the insemination dishes prepared in advance, which contained approximately 600.000 capacitated sperm cells per 500 μl IVF medium (obtained from the epididymides of male mice). The dishes were then incubated under defined gas conditions (5% CO2 in air) at 37° C. in a modified α-MEM IVF medium supplemented with 8 mg/ml HSA, 0.23 mM pyruvate, 100 IU penicillin/ml and 100 μg streptomycin/ml as described above for oocyte maturation.
Examination of the oocytes was carried out 22-24 hours after insemination in order to check fertilization and to record the number of pronucleus (PN) and 2-cell stage embryos. The fertilization rate was determined as the number of oocytes that had reached the PN or 2-cell embryo stage, relative to the total number inseminated.

Assay [2] relates to Cumulus Enclosed Oocytes (CEOs). As to the kind of experiment: Cumulus enclosed oocyte assay (meiosis activation in Hx-medium). Type of assay: cell-based, mice (C57BL/6J×DBA/2J F1). An excerpt:
Activation of MI arrested oocytes can be assessed by the disappearance of the germinal vesicle (GV). The disappearance of the GV, called germinal vesicle breakdown (GVB) is followed by the extrusion of the first polar body (PB) (C. Grøndahl, J. L. Ottesen, M. Lessi, P. Faarup, A. Murray, F C Grønvald, C. Hegele-Hartung, I. Ahnfelt-Rønne, “Meiosis-activating sterol promotes resumption of meiosis in mouse oocytes cultured in vitro in contrast to related oxysterols”, Biol. Reprod., 58, 1297-1302 (1998); C. Hegele-Hartung, J. Kuhnke, M. Lessi, C. Grøndahl, J. Ottesen, H. M. Beier, S. Eisner, U. Eichenlaub-Ritter, “Nuclear and cytoplasmic maturation of mouse oocytes after treatment with synthetic meiosis-activating sterol in vitro”, Biol. Reprod., 61, 1362-1372 (1999)).
Cumulus Enclosed Oocytes (CEOs) were obtained from immature female mice (C57BL/6J×DBA/2J F1) weighing 13-16 grams, that were kept under controlled temperature (20-22° C.), light (lights on 06:00-18:00) and relative humidity (50-70%). The mice received an intra-peritoneal injection of 0.2 ml gonadotropins containing 20 IU FSH. 48 hours later the animals were killed by cervical dislocation. The ovaries were dissected out and the oocytes were isolated in Hx-medium (see below) under a stereomicroscope by manual rupture of the follicles using a pair of 27-gauge needles. Cumulus enclosed oocytes displaying an intact germinal vesicle were placed in α-minimum essential medium (α-MEM without ribonucleosides supplemented with 8 mg/ml Human Serum Albumin (HSA), 0.23 mM pyruvate, 2 mM glutamine, 100 IU/ml penicillin and 100 μg/ml streptomycin). To maintain the oocytes in the germinal vesicle stage this medium was supplemented with 3 mM hypoxanthine, designated as Hx-medium.
The CEOs (35-45 CEOs in 0.4 ml Hx-medium) were cultured in a humidified atmosphere of 5% CO2 in air for 24 hours at 37° C. One control well (identical medium with no addition of test compound) was always cultured simultaneously with test wells.
By the end of the culture period the number of CEOs with germical vesicle (GV), germinal vesicle breakdown (GVB) and polar bodies (PB), respectively, were counted. The % GVB, defined as the percentage of CEOs undergoing GVB per total number of CEOs in that well, was calculated as: % GVB=(number of GVB+number of PB/total number of CEOs)×100
The % PB was defined as the percentage of CEOs displaying one extruded polar body per total number of CEOs in that well.
For each compound two experiments were performed and the results compared to Hx-medium as a control and FF-MAS at a concentration of 10 μM.

Take `C[C@H](CN1CCSCC1)[C@H]1CC=C2C3=C(CC[C@@]21C)[C@@]1(C)CC[C@H](O)C(C)(C)[C@@H]1CC3` [Compound IA, (20S)-20-[(thiomorpholin-4-yl)methyl]-4,4-dimethyl-5α-pregna-8,14-dien-3β-ol]: in assay [1] (already at 0.1 μM, tends to be even higher at 1 μM), the “effect on 2-cell and blastocyst rate” value is reported as “beneficial effect”. The “fertilization rates of mouse oocytes compared to vehicle control (FIG. 3)” value in assay [1] (in vitro maturation without hypoxanthine, then IVF, n=18) was “higher fertilization rates”. Besides, the “efficiency of meiosis activation among the compounds tested” value in assay [2] (CEOs in the presence of Hx) was “the most efficient compound tested”. The “meiosis activation in CEOs monitored by GVB and PB (FIG. 2)” value in assay [2] (at 1 μM (p<0.01; n=10), 3 μM (p<0.05; n=7) and 10 μM (p<0.001; n=6)) is on record as “significantly improved meiosis activation”.

Source of the values: patent US20070078262A1, “Thiomorpholino steroid compounds, the use thereof for the preparation of meiosis-regulating medicaments and method for the preparation thereof” (SCHERING AKTIENGESELLSCHAFT, priority 2003, published 2007).
